The test system of one series is mice. The note with it: mouse, in vivo, 1440 min. How it is done: 2. Determination of Minimum Toxic Dose
Maximum doses of 300 mg/kg of the test substance were administered orally to male mice weighing 20-25 g. The animals were observed carefully for 3 hours for toxicity symptoms. In addition, all symptoms and deaths were recorded over a period of 24 hours after administration. Associated symptoms were also observed and recorded. If death or severe toxic symptoms were observed, additional mice were administered increasingly lower doses. The lowest dose which produced death or severe toxic symptoms is given in the following Table B as the minimum toxic dose.

Another series has as its target T1, histamine-(H1)-receptor (Cavia porcellus, UniProt P31389).
T1 construct: Segments of the ileum 1.5 cm long from Dunkin Hartley guinea pigs; from tissue; host or cells: isolated ileum of Dunkin Hartley guinea pigs
As to the kind of experiment: Histamine-(H1)-receptor antagonism in vitro, histamine-induced contractions of isolated ileum. Type of series: cell-based, guinea pig (Dunkin Hartley). Particulars: test substance 10^-6 mole/l, histamine 5 × 10^-6 mole/l. How it is done:
3. Investigation of Anti-Histamine-(H1) Effect Based on Histamine-(H1)-Receptor Antagonism In Vitro
To investigate the histamine-(H1)-receptor antagonism of the test substances, the inhibiting effect of the substances on histamine-induced contractions of the smooth muscle was determined in vitro on the isolated organ. Isolated strips of organ from the ileum are suitable for this purpose. In an organ bath of physiological saline solution the smooth muscle strips react to the addition of histamine by contracting. […] The extent of regression of the contraction is an indication of the anti-histamine-(H1) activity of the compounds. The investigation was carried out analogously to the method originally described by Magnus (Pfluegers Arch. 102, 123 (1904)).
Procedure for determining the smooth muscle contraction inhibiting effect on isolated guinea pig ileum induced by a 5×10^-6 molar histamine concentration
Segments of the ileum 1.5 cm long from Dunkin Hartley guinea pigs having a body weight of 300 500 g were used for the test. Each strip was placed in an organ bath of 10 ml of physiological saline solution according to Krebs-Henseleit and attached to a conventional apparatus for isotonic measurement of changes in length of the ileum strips (automated Celaster measuring apparatus), so that the tissue was under 1 g of tension. The bath was kept at a pH of 7.4 and gassed with a mixture of 5% CO2 and 95% O2. After an equilibration phase, an isotonic contraction of the tissue was induced by adding histamine in a final concentration of 5×10^-6 mole/liter and washing it out again after a contact time of 30 seconds. Only tissues samples from which three reproducible contractions were obtained at 10 minute intervals were used in the subsequent test. The test substances were then added in a final concentration of 10^-6 mole/liter, and after 30 seconds contact time histamine was again added up to a concentration of 5×10^-6 mole/liter. The resulting contractions were measured over 30 seconds. The tissue was then washed several times over a period of 10 minutes. Histamine was then added again to stimulate a contraction. The resulting contractions were again measured over 30 seconds. The difference between the amplitude of the contraction obtained by histamine addition alone and the amplitude of the contraction obtained in the presence of the test substance was determined and expressed in terms of % inhibition.
The inhibiting effects on the contractions induced by histamine 30 seconds after administration of the test substance and on the contractions induced by the addition of histamine 10 minutes later are listed in the table.

The subject of series [1] is PAF-induced aggregation of rabbit blood platelets. As to the kind of experiment: Anti-PAF activity in vitro, PAF-induced platelet aggregation. In kind it is cell-based, rabbit (New Zealand hybrids). Particulars: Oryctolagus cuniculus, test substance 10^-5 mole/l, pH 7.4. The text has this: 4. Determination of Anti-PAF Activity In Vitro
PAF (=Platelet Activating Factor) is a phospholipid mediator which has many effects. Activation of platelet aggregation induces protracted broncho-contraction and hyper-reactivity of the air paths.
In this test the effect of the test substances on platelet aggregation induced by adding PAF to a suspension of platelets obtained from rabbit blood is investigated using the method described by Mikashima et al. (Jap. J. Pharmacol. 44 (1987) 387-391).
A suspension of platelets obtained from rabbit blood containing 4×10^9 platelets/ml in a modified Tyrode buffer solution (=Tyrode solution with 1.3 mM/l CaCl2 and 2.5 g/l gelatine added) adjusted to pH 7.4 was used. Tyrode solution is an aqueous solution containing 136.9 mmoles NaCl, 2.68 mmoles KCl, 2.31 mmoles CaCl2, 1.0 mmole MgCl2, 11.9 mmoles NaHCO3, 1.45 mmoles NaH2 PO4 and 5.55 mmoles glucose per liter. The platelets were obtained from 10 ml blood samples from each of three rabbits (New Zealand hybrids, body weight 3-4 kg). For this the blood samples were treated with ethylenediamine tetraacetic acid and washed according to the method of Artley et al. (Brit. J. Hematol. 19 (1970), 7-17). A platelet-rich plasma was then initially separated by centrifuging (20 minutes at 400×g). The blood platelets were separated from the plasma by recentrifuging for 15 minutes at 1,400×g. The platelets remaining as sediment after centrifuging were resuspended in a Tyrode buffer solution (but without calcium). 0.4 mmole of lysine acetylsalicylate was then added, and after 15 minutes the platelets were sedimented again. The sediment was resuspended in the aforementioned modified Tyrode buffer solution, and the number of platelets in the resulting suspension was adjusted to the desired content.
A 40×10^-9 molar PAF solution was used as a reagent. This solution was made from a 1.8×10^-3 molar stock solution in chloroform. For this purpose a 10 μl sample of the stock solution was evaporated to dryness and redissolved in 180 μl of the modified Tyrode solution to which 0.25% of lipid-free bovine serum albumin had been added. From this 10^-5 molar working solutions were then prepared and stored frozen. Samples of these solutions were appropriately diluted for the tests.
To carry out the test 50 μl of the platelet suspension and 10 μl of a 40×10^-5 molar solution of the compound being investigated were added with stirring (1,000 rpm) to 330 μl of the modified Tyrode buffer solution in an aggregation tube provided with a small magnetic stirrer. This corresponds to a final test substance concentration of 10^-5 mole/l. After 90 seconds preincubation time, 10 μl of the PAF preparation were added. The aggregation occurring in the aggregation tubes was measured over 4-5 minutes with the aid of a computerized aggregometer.
The aggregation which occurred in test tubes containing only platelet suspension was evaluated as 0%, whereas the aggregation which occurred in test tubes containing platelet suspension and PAF preparation was evaluated as 100%. The aggregation which still occurred during the inhibition of the PAF induced platelet aggregation due to the addition of the test substances was measured, and the resulting aggregation inhibition was calculated therefrom in %.

The test system of series [2] is histamine-induced anaphylactoid cutaneous reaction. As to the kind of experiment: Inhibition of histamine-induced anaphylactoid cutaneous reaction in rats. In kind it is in vivo, Sprague-Dawley rats. Particulars: Rattus norvegicus, 1 h, 2 × 10^-5 mole/kg per os, one hour before ovalbumin challenge. How it is done:
(§1) 1. Determining Inhibition of Passive Cutaneous Anaphylaxis (PCA) and Histamine-Induced Anaphylactoid Cutaneous Reaction
(§2) The inhibition of the passive cutaneous anaphylaxis and of the anaphylactoid cutaneous reaction induced by histamine was determined as follows:
(§3) Sprague-Dawley rats having a body weight of 150-180 g were injected intradermally in one flank with 50 μl of a 1:75 dilution of the IgE-rich ovalbumin antiserum in physiological saline solution to passively sensitize them to ovalbumin.
(§4) 24 hours after sensitization a solution of 8.25 mg/kg of ovalbumin and 26.4 mg/kg of a blue dye (Evans's Blue) was administered to the rats intravenously according to Martin et al. to trigger passive cutaneous anaphylaxis.
To determine the histamine-induced anaphylactoid skin reaction, the animals are injected intradermally in the flank opposite to the antiserum administration with 50 μl of a physiological saline solution containing 0.8 mg/ml histamine directly before the intravenous injection of the solution containing the ovalbumin and the blue dye.
(§5) On the day of the experiment the test substances were dissolved in distilled water which contained 1 vol. % dimethylformamide and 1 vol. % of Tween™ 20 (=polyoxyethylene (20) sorbitan monolaurate). One hour before administration of the ovalbumin challenge, each animal was orally administered 2×10^-5 mole/kg of test substance in 0.5 ml of solution. For comparison purposes a control group received only the solvent.
(§6) The edematous anaphylactic (PCA) and anaphylactoid (histamine-induced) reactions caused by the stimulation of the intravenous ovalbumin injection, which manifested themselves by edema formation, swelling and exudation of blue dye, were evaluated 30 minutes after their initiation by the intravenous ovalbumin injection. This was done by visually determining the extent to which the blue dye emerged at the sites of edema formation. The percentage inhibition of anaphylactic and anaphylactoid reactions induced by the test substances in comparison with the reactions of the control animals not treated with any test substance was determined using comparison scales.
(§7) The results obtained using compounds of formula I according to the foregoing test methods are shown in the following Table A. The example numbers given for the compounds of formula I relate to the subsequent preparative examples.

The subject of series [3] is passive cutaneous anaphylaxis (PCA). As to the kind of experiment: Inhibition of passive cutaneous anaphylaxis (PCA) in rats. In kind it is in vivo, Sprague-Dawley rats. The note with it: Rattus norvegicus, 1 h, 2 × 10^-5 mole/kg per os, one hour before ovalbumin challenge. How it is done:
as §1
The PCA reaction is carried out following the methods described by Goose et al. (J. N. Immunology 16 (1969), 749) and by Martin et al. (Arch. Pharmacol. 316 (1981), 186).
The IgE-rich ovalbumin antiserum used in the test was obtained from immunized Brown-Norway rats. The were immunized with an intraperitoneal injection of a mixture of 100 μg of ovalbumin with a Bordetella pertussis suspension (Vaxicoq™, Manufactured by Institute Merieux, containing 5×10^9 organisms and 1.25 mg Al(OH)3). After 20 days the animals were re-immunized with a further intraperitoneal injection of a solution of 10 μg ovalbumin in 0.5 ml physiological saline solution. After a further four days the blood was removed from the animals and centrifuged. The resulting antiserum was stored at -20° C. until use.
as §2, §3, §4, §5, §6, §7

[4] abbreviates: 0.5 min, after 30 seconds, read-out: % inhibition of histamine-induced ileum contractions after 30 seconds.
Setting [5] is: 10 min, after 10 minutes (after washing), read-out: % inhibition of histamine-induced ileum contractions after 10 minutes.

Like-named read-outs stand apart in the source and are kept apart here.

As usually defined, the inhibition is the drop in the measured response relative to a control, in per cent. What is called inhibition in vivo is the relative decrease from the control value, in per cent. Higher therefore signals a strong effect.

T1 sequence (P31389 whole entry): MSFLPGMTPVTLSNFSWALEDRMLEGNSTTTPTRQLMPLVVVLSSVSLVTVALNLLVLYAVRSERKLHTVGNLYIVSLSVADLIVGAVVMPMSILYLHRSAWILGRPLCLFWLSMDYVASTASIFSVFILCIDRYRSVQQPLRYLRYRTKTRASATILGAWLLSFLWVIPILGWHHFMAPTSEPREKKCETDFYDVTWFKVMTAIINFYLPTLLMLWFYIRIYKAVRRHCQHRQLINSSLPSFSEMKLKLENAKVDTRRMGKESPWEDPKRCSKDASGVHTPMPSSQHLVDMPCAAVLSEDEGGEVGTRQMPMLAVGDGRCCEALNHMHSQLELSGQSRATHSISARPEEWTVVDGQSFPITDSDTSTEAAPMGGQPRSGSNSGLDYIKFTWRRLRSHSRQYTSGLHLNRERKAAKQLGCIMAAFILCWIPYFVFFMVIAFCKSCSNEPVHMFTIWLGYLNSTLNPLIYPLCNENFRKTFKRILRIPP

On to `Cc1ccnc(N2CCN(CCCCC3Sc4ccccc4NC3=S)CC2)c1` (stereo not shown) [Example 2, 2-{4-[4-(4-methylpyridin-2-yl)-piperazin-1-yl]butyl}-2H-1,4-benzothiazine-3(4H) -thione], for which the Minimum toxic dose in the series with mice was more than 300 mg/kg. Also, the inhibition at 1 µM was 51% at histamine-(H1)-receptor (setting [4]) and 60% on histamine-(H1)-receptor (setting [5]). In series [1], this compound yielded an inhibition at 10 µM of 60%.

With `COc1cccc(N2CCN(CCCCC3Sc4ccccc4NC3=O)CC2)n1` (stereo not shown) [Example 16], the inhibition in vivo at 20 µmol/kg in series [2] came to 45%; in series [3], 50%. The compound also gave a Minimum toxic dose in the series with mice of 300 mg/kg. For the same compound, the values for the inhibition at 1 µM on histamine-(H1)-receptor (setting [4]) and on histamine-(H1)-receptor (setting [5]) were 30% and 27%, respectively.

Regarding `Cc1ccnc(N2CCN(CCCC3Oc4ccc(C)cc4NC3=O)CC2)c1` (stereo not shown) [Example 22], the inhibition in vivo at 20 µmol/kg in series [2] turned out to be 45%; in series [3], 69%. The compound further gave a Minimum toxic dose in the series on mice of 300 mg/kg. Also, the inhibition at 10 µM in series [1] stood at 42%.

Values taken from patent US5332733A, “Heterocyclically substituted piperazinoakylbenzoxazine and piperazinoalkylbenzothiazine compounds, processes for preparing them, and medicaments containing them” (Kali-Chemie Pharma GmbH, priority 1990, dated 1994).
